# Results reported in patent US20080176854A1, “Nitro-Substituted Phenyl-Piperazine Compounds, Their Preparation and Use in Medicaments” (Laboratorios Del Dr. Esteve S.A, priority 2004, published 2008).
# Biological target: T1, 5HT6-human recombinant receptor (Homo sapiens, UniProt P50406)
# T1 construct: purchased Receptor Biology; host or cells: HEK-293 cell membranes
# Experiment: Binding to serotonin receptor 5-HT6 ([3H]-LSD radioligand displacement)
# Details: membranes of HEK-293 cells expressing the receptor; radioligand [3H]-LSD 2.7 nM; 60 minutes at 37° C; triplicate
# Procedure: I) Binding to Serotonin Receptor 5-HT6
# Cell membranes of HEK-293 cells expressing the 5HT6-human recombinant receptor were supplied by Receptor Biology. In said membranes the receptor concentration is 2.18 pmol/mg protein and the protein concentration is 9.17 mg/ml. The experimental protocol follows the method of B. L. Roth et al. [B. L. Roth, S. C. Craigo, M. S. Choudhary, A. Uluer, F. J. Monsma, Y. Shen, H. Y. Meltzer, D. R. Sibley: Binding of Typical and Atypical Antipsychotic Agents to 5-Hydroxytryptamine-6 and Hydroxytryptamine-7 Receptors. The Journal of Pharmacology and Experimental Therapeutics, 1994, 268, 1403] with the following slight changes. The respective part of the literature description is hereby incorporated by reference and forms part of the disclosure.
# The commercial membrane is diluted (1:40 dilution) with the binding buffer: 50 mM Tris-HCl, 10 mM MgCl2, 0.5 mM EDTA (pH 7.4). The radioligand used is [^3H]-LSD at a concentration of 2.7 nM with a final volume of 200 μl. Incubation is initiated by adding 100 μl of membrane suspension, (≈22.9 μg membrane protein), and is prolonged for 60 minutes at a temperature of 37° C. The incubation is ended by fast filtration in a Brandel Cell Harvester through fiber glass filters made by Schleicher & Schuell G F 3362 pretreated with a solution of polyethylenimine at 0.5%. The filters are washed three times with three milliliters of buffer Tris-HCl 50 mM pH 7.4. The filters are transferred to flasks and 5 ml of Ecoscint H liquid scintillation cocktail are added to each flask. The flasks are allowed to reach equilibrium for several hours before counting with a Wallac Winspectral 1414 scintillation counter. Non-specific binding is determined in the presence of 100 μM of serotonin. Tests were made in triplicate. The inhibition constants (Ki, nM) were calculated by non-linear regression analysis using the program EBDA/LIGAND described in Munson and Rodbard, Analytical Biochemistry, 1980, 107, 220, the respective part of which is hereby incorporated by reference and forms part of the disclosure.
# The binding of the nitro-substituted phenyl-piperazine compounds to the 5-HT6 receptor was determined as described above.
# T1 sequence (P50406 whole entry): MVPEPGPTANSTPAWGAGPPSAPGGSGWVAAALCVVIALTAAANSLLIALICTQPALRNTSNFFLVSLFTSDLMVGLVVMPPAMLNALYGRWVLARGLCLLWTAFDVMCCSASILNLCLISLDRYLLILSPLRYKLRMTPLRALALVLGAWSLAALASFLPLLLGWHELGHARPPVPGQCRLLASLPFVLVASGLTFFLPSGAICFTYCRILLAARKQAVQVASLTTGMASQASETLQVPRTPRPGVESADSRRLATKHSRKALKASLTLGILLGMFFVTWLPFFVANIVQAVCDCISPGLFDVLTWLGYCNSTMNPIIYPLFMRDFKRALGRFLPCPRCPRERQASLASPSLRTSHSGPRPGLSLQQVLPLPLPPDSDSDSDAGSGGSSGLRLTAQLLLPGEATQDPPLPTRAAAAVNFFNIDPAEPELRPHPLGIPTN
row,Compound,Ki [nM]
1,"CC(Nc1cc(N2CCN(C)CC2)ccc1[N+](=O)[O-])c1ccccc1 (stereo not drawn) [Example 59, [5-(4-Methyl-piperazin-1-yl)-2-nitro-phenyl]-(1-phenyl-ethyl)-amine]",11.9
2,"O=[N+]([O-])c1ccc(N2CCNCC2)cc1NCc1ccco1 [Example 57, Furan-2-ylmethyl-(2-nitro-5-piperazin-1-yl-phenyl)-amine]",25
3,"O=[N+]([O-])c1ccc(N2CCNCC2)cc1NCc1cccnc1 [Example 26, (2-Nitro-5-piperazin-1-yl-phenyl)-pyridin-3-ylmethyl-amine]",1510
4,"O=[N+]([O-])c1ccc(N2CCNCC2)cc1NCc1ccc(Cl)cc1 [Example 52, (4-Chloro-benzyl)-(2-nitro-5-piperazin-1-yl-phenyl)-amine]",8.3
5,"Cc1ccccc1OCCNc1cc(N2CCNCC2)ccc1[N+](=O)[O-] [Example 13, (2-Nitro-5-piperazin-1-yl-phenyl)-(2-o-tolyloxy-ethyl)-amine]",162
6,"O=[N+]([O-])c1ccc(N2CCN(CCO)CC2)cc1NCCc1ccccc1 [Example 12, 2-[4-(4-Nitro-3-phenethylamino-phenyl)-piperazin-1-yl]-ethanol]",6330
7,"CN1CCN(c2ccc([N+](=O)[O-])c(Nn3cccc3)c2)CC1 [Example 5, [5-(4-Methyl-piperazin-1-yl)-2-nitro-phenyl]-pyrrol-1-yl-amine]",481
8,"CN1CCN(c2ccc([N+](=O)[O-])c(NCc3ccc(Cl)cc3)c2)CC1 [Example 56, (4-Chloro-benzyl)-[5-(4-methyl-piperazin-1-yl)-2-nitro-phenyl]-amine]",59
9,"CN1CCN(c2ccc([N+](=O)[O-])c(NCc3cccnc3)c2)CC1 [Example 24, [5-(4-Methyl-piperazin-1-yl)-2-nitro-phenyl]-pyridin-3-ylmethyl-amine]",1270
10,"CN1CCN(c2ccc([N+](=O)[O-])c(NCc3ccco3)c2)CC1 [Example 11, Furan-2-ylmethyl-[5-(4-methyl-piperazin-1-yl)-2-nitro-phenyl]-amine]",61.2
11,"O=[N+]([O-])c1ccc(N2CCNCC2)cc1NCCOc1ccccc1 [Example 30, (2-Nitro-5-piperazin-1-yl-phenyl)-(2-phenoxy-ethyl)-amine]",114
12,"Cc1cc(C)n(-c2cc(N3CCN(C)CC3)ccc2[N+](=O)[O-])n1 [Example 21, 1-[3-(3,5-Dimethyl-pyrazol-1-yl)-4-nitro-phenyl]-4-methyl-piperazine]",250
13,"Cc1cc(C)n(-c2cc(N3CCNCC3)ccc2[N+](=O)[O-])n1 [Example 32, 1-[3-(3,5-Dimethyl-pyrazol-1-yl)-4-nitro-phenyl]-piperazine]",482
14,"CN1CCN(c2ccc([N+](=O)[O-])c(-n3nc(-c4ccccc4)c4ccccc4c3=O)c2)CC1 [Example 16, 2-[5-(4-Methyl-piperazin-1-yl)-2-nitro-phenyl]-4-phenyl-2H-phthalazin-1-one]",732
15,"CN1CCN(c2ccc([N+](=O)[O-])c(N3CCOCC3)c2)CC1 [Example 15, 4-[5-(4-Methyl-piperazin-1-yl)-2-nitro-phenyl]-morpholine]",2710
16,"CN1CCN(c2ccc([N+](=O)[O-])c(-n3nc(-c4ccccc4)c4ccccc4c3=O)c2)CC1 [Example 31, 2-[5-(4-Methyl-piperazin-1-yl)-2-nitro-phenyl]-4-phenyl-2H-phthalazin-1-one]",1710
17,"CN1CCN(c2ccc([N+](=O)[O-])c(Oc3ccccc3)c2)CC1 [Example 7, 1-Methyl-4-(4-nitro-3-phenoxy-phenyl)-piperazine]",26.6
18,"O=[N+]([O-])c1ccc(N2CCNCC2)cc1NCc1ccccc1 [Example 22, Benzyl-(2-nitro-5-piperazin-1-yl-phenyl)-amine]",27.5
19,"CC1CN(c2ccc([N+](=O)[O-])c(NCCOc3ccc(Cl)cc3)c2)CC(C)N1 (stereo not drawn) [Example 17, [2-(4-Chloro-phenoxy)-ethyl]-[5-(3,5-dimethyl-piperazin-1-yl)-2-nitro-phenyl]-amine]",5000
20,"O=[N+]([O-])c1ccc(N2CCNCC2)cc1NCCc1ccccc1 [Example 33, (2-Nitro-5-piperazin-1-yl-phenyl)-phenethyl-amine]",33.1

# Next, values leading:
row,Ki [nM],Compound
1,118,"CN1CCN(c2ccc([N+](=O)[O-])c(NCCc3ccccc3)c2)CC1 [Example 23, [5-(4-Methyl-piperazin-1-yl)-2-nitro-phenyl]-phenethyl-amine]"
2,290,"O=[N+]([O-])c1ccc(N2CCNCC2)cc1NCCOc1ccc(Cl)cc1 [Example 58, [2-(4-Chloro-phenoxy)-ethyl]-(2-nitro-5-piperazin-1-yl-phenyl)-amine]"
3,80.3,"CN1CCN(c2ccc([N+](=O)[O-])c(NCCOc3ccc(C(C)(C)C)cc3)c2)CC1 [Example 45, [2-(4-tert-Butyl-phenoxy)-ethyl]-[5-(4-methyl-piperazin-1-yl)-2-nitro-phenyl]-amine]"
4,3780,"O=[N+]([O-])c1ccc(N2CCNCC2)cc1N1CCN(Cc2ccccc2)CC1 [Example 27, 1-Benzyl-4-(2-nitro-5-piperazin-1-yl-phenyl)-piperazine]"
5,19.1,"COc1ccccc1OCCNc1cc(N2CCN(C)CC2)ccc1[N+](=O)[O-] [Example 51, [2-(2-Methoxy-phenoxy)-ethyl]-[5-(4-methyl-piperazin-1-yl)-2-nitro-phenyl]-amine]"
6,34.3,"O=[N+]([O-])c1ccc(N2CCN(Cc3ccccc3)CC2)cc1NCc1ccccc1 [Example 53, Benzyl-[5-(4-benzyl-piperazin-1-yl)-2-nitro-phenyl]-amine]"
7,172,"CN1CCN(c2ccc([N+](=O)[O-])c(NCc3ccc(F)cc3)c2)CC1 [Example 2, (4-Fluoro-benzyl)-[5-(4-methyl-piperazin-1-yl)-2-nitro-phenyl]-amine]"
8,245,"COc1ccc(OCCNc2cc(N3CCN(C)CC3)ccc2[N+](=O)[O-])cc1 [Example 46, [2-(4-Methoxy-phenoxy)-ethyl]-[5-(4-methyl-piperazin-1-yl)-2-nitro-phenyl]-amine]"
9,26.1,"Cc1ccccc1OCCNc1cc(N2CCN(C)CC2)ccc1[N+](=O)[O-] [Example 55, [5-(4-Methyl-piperazin-1-yl)-2-nitro-phenyl]-(2-o-tolyloxy-ethyl)-amine]"
10,4490,"CN1CCN(c2ccc([N+](=O)[O-])c(NC(c3ccccc3)c3ccccc3)c2)CC1 [Example 29, Benzhydryl-[5-(4-methyl-piperazin-1-yl)-2-nitro-phenyl]-amine]"
